Where “and” joins values, the source holds several entries; their conditions need not be identical. Equal entries are not always repeated. Structures can show the parent of a compound that is named as a salt. Where two headings read alike, the source gives them in different places.
Columns and labels:
[1] = system: C57 male mice; type: in vivo; settings: for Survival number/Test number: no irradiation, 30-day;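 for survival rate compared with amifostine: mice aged 8-10 weeks, weighing 20-22 g, with deaths logged and survival rate computed on day 30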;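 for survival rates compared with amifostine: mice aged 8-10 weeks, weighing 20-22 g, with deaths logged and survival rate computed on day 30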
Procedure: Administration and grouping: Each group was intraperitoneally injected with one corresponding dose of amifostine. • Each group was intraperitoneally injected with one corresponding dose of Example 17 (IP).
The 30-day survival rate of mice in each group was recorded.

[2] = system: C57 male mice; experiment: Example D: protective effect on the hematopoietic system after 4Gy irradiation; type: in vivo; settings: 800 mpk IP 30 min before 4Gy
Text: The mice were sacrificed on the 15th day after the irradiation, followed by blood collection. Femoral bone marrow cells, spleen and thymus were weighed, and cells were extracted for detecting the peripheral white blood cell (WBC) count, peripheral red blood cell (RBC) count, peripheral hemoglobin (HGB) concentration, peripheral platelet (PLT) count, peripheral blood lymphocyte ratio (LY %), and peripheral blood neutrophil ratio (NE %).
In addition, the number of leukocytes in bone marrow, ratio of hematopoietic stem cell (LSK) in bone marrow cells, ratio of hematopoietic progenitor cells (HPC) in bone marrow cells, ratio of CD34−LSK in bone marrow cells, and ratio of CD34+LSK in bone marrow cells were detected.
The effects of irradiation on LSK intracellular reactive oxygen species (ROS) level and HPC intracellular ROS level were also detected.

[3] = system: C57 male mice;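 for survival rate compared with amifostine: mice aged 8-10 weeks, weighing 20-22 g, with deaths logged and survival rate computed on day 30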;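 for survival rates compared with amifostine: mice aged 8-10 weeks, weighing 20-22 g, with deaths logged and survival rate computed on day 30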
Procedure: Laboratory animals: C57 male mice, 8-10 weeks old, 20-22 g, were divided into 4 groups, 5 or 10 or 15 or 20 or 25 mice in each group.
Observation index: The death and weight of the mice were recorded, and the survival rate was calculated on the 30th day.

[4] = system: C57 male mice; experiment: Example G: effect of stereoisomerism on survival rate of mice under 7.5Gy irradiation; type: in vivo; settings: 200 mg/kg IP 30 min before irradiation
Text: Laboratory animals: C57 male mice, 19-21 g, purchased from Beijing HFK Bioscience Co. Ltd., license number SCXK (Beijing), 9 mice in each group.

[5] = system: C57 male mice; experiment: Example E2: HE staining of small intestine on the 5th day after local abdominal irradiation; type: in vivo
Procedure: In amifostine group, intraperitoneal injection was performed 30 min before the local abdominal irradiation at 16Gy, wherein amifostine was dissolved in normal saline, 365 mpk.
In Example 4 group, intraperitoneal injection was performed 30 min before the local abdominal irradiation at 16Gy, wherein Example 4 was dissolved in normal saline, 517 mpk.
The mice were sacrificed on the 5th day after the irradiation, and the small intestine was taken and sectioned for HE staining.

[6] = system: C57 male mice; experiment: Example F: radiation pneumonia, HE staining of right lung on the 60th day after 17Gy X rays; type: in vivo
Procedure: Administration and grouping: Mice were intraperitoneally injected with normal saline, Example 4 (400 mpk), and amifostine (200 mpk) respectively 30 min before irradiation, and the right lungs were irradiated at 17Gy by X rays. The right lungs were taken on the 60th day for HE staining (n=3):
Two months after irradiation of the unilateral lung, the most important lung manifestation was radiation pneumonia. […] The alveolar structure of mice in the 17Gy group was changed, which was manifested as a large area of inflammatory infiltration of the lung (the blue dots were inflammatory cells), and the alveoli were filled with inflammatory cells.

[7] = cited from earlier work
[8] = 15th day, vs irradiation control
[9] = 6.8Gy, 200 mpk IP 30 min before irradiation, day 30

## CNC(=O)[C@H](CS)NC(=O)[C@H](CS)NC(=O)[C@H](CS)NC [Example 4, (R)-3-mercapto-N—((R)-3-mercapto-1-(((R)-3-mercapto-1-(methylamino)-1-oxopropan-2-yl)amino)-1-oxopropan-2-yl)-2-(methylamino) propanamide trifluoroacetate]
[1]; 400 mpk IP
  Survival number/Test number: 10/10
[1]; 600 mpk IP
  Survival number/Test number: 5/5
[1]; 800 mpk IP
  Survival number/Test number: 10/10
[1]; 900 mpk IP
  Survival number/Test number: 10/10
[1]; 1000 mpk IP
  Survival number/Test number: 6/6 and 10/10
[1]; 1100 mpk IP
  Survival number/Test number: 8/10
[1]; 1200 mpk IP
  Survival number/Test number: 6/10
[1]; 1600 mpk IP
  Survival number/Test number: 3/10
[1]; male, C57, mouse, in vivo, 1000 mg/kg, 30 day
  Survival rate: 100%
[1]; mouse, in vivo
  safety compared with amifostine: as safe as or even better than amifostine
[2]; 15th day
  number of leukocytes (WBC) in bone marrow: increased by administration of Example 4 with significant difference
  ratio of hematopoietic progenitor cells (HPC) in bone marrow cells (HPC %): increased by administration of Example 4 with significant difference
  ratio of hematopoietic stem cell (LSK) in bone marrow cells (LSK %): increased by administration of Example 4 with significant difference
[2]; 15th day, irradiation decreased CD34+LSK %
  ratio of CD34+LSK in bone marrow cells: alleviated this abnormal differentiation with significant difference
[2]; 15th day, irradiation increased CD34−LSK %
  ratio of CD34−LSK in bone marrow cells: alleviated this abnormal differentiation with significant difference
[2]; 15th day, irradiation increased NE %
  peripheral blood neutrophil ratio (NE %): alleviated this abnormal differentiation with significant difference
[2]; 15th day, irradiation reduced LY %
  peripheral blood lymphocyte ratio (LY %): alleviated this abnormal differentiation with significant difference
[2]; [8]
  peripheral red blood cell (RBC) count: increased by administration of Example 4 with significant difference
  peripheral white blood cell (WBC) count: increased by administration of Example 4 with significant difference
[2]; bone marrow
  HPC intracellular ROS level: reduced the ROS levels with significant difference
  LSK intracellular reactive oxygen species (ROS) level: reduced the ROS levels with significant difference
[3]; 7.2Gy, 200 mpk IP, day 30
  Survival number/Test number: 20/25
  Survival rate: 80%
[3]; 7.5Gy, 517 mpk IP
  Survival number/Test number: 9/10
  Survival rate: 90%
[3]; 7.5Gy, 800 mpk IP
  Survival number/Test number: 7/10
  Survival rate: 70%
[3]; 10Gy, 365 mpk IP
  Survival number/Test number: 15/20
  Survival rate: 75%
[3]; 12.5Gy, 365 mpk IP
  Survival number/Test number: 4/10
  Survival rate: 40%
[3]; absorbed dose 6.8Gy and 7.2Gy
  survival rates compared with amifostine: survival rates comparable to those using amifostine
[3]; higher absorbed dose, as high as 12.5Gy
  survival rate compared with amifostine: a survival rate equivalent to those using amifostine
[4]
  Survival number/Test number: 5/9
  Survival rate: approximately 56%
[4]; 9 mice per group
  deaths: (4 deaths)
[5]; 517 mpk IP 30 min before local abdominal irradiation at 16Gy
  intestinal villi structure (HE staining): slight changes compared with the irradiation group
[6]; 400 mpk IP 30 min before 17Gy X rays to right lung
  inflammatory cell infiltration of lung / incidence of radiation pneumonia: partially relieve inflammatory cell infiltration and reduce the incidence of radiation pneumonia

## NCCCNCCSP(=O)(O)O [Amifostine, amifostine, reference compound]
[1]; 400 mpk IP
  Survival number/Test number: 5/5
[1]; 600 mpk IP
  Survival number/Test number: 5/5
[1]; 800 mpk IP
  Survival number/Test number: 3/5
[1]; 1600 mpk IP
  Survival number/Test number: 0/5
[3]; [9]
  Survival number/Test number: 5/5
  Survival rate: 100%
[3]; 7.2Gy, 200 mpk IP, day 30
  Survival number/Test number: 9/10 and 12/15 and 4/5 and 7/10 and 20/25
  Survival rate: 90% and 80% and 70%
[3]; 7.5Gy, 200 mpk IP, day 30
  Survival number/Test number: 5/5 and 4/5 and 1/10
[3]; 7.5Gy, 365 mpk IP
  Survival number/Test number: 10/10
  Survival rate: 100%
[3]; 10Gy, 517 mpk IP
  Survival number/Test number: 15/20
  Survival rate: 75%
[3]; 12.5Gy, 517 mpk IP
  Survival number/Test number: 5/10
  Survival rate: 50%
[5]; 365 mpk IP 30 min before local abdominal irradiation at 16Gy
  intestinal villi structure (HE staining): slight changes compared with the irradiation group
[6]; 200 mpk IP 30 min before 17Gy X rays to right lung
  inflammatory cell infiltration of lung / incidence of radiation pneumonia: partially relieve inflammatory cell infiltration and reduce the incidence of radiation pneumonia
[7]
  half-life: 7 min

Reference: US11008286B2, “Amino mercaptan compound and preparation method therefor and use thereof in protection against radiation” (Institute of Radiation Medicine Chinese Academy of Medical …, priority 2016, dated 2021)
